Results on seven molecules are retold here after publication PMC10889360, “Therapeutic targeting Tudor domains in leukemia via CRISPR-Scan Assisted Drug Discovery” (Science Advances, 2024).

Structures can show the parent of a compound that is named as a salt. Where two headings read alike, the source gives them in different places. No end group written: not given here. Me3 = trimethyl (trimethyl-lysine)

For one series, the system named is U251 (U-251). Kind of series: cells. Also on record: species or system MV4-11; U251. The note with it: for viability at 10 µM: Homo sapiens, read-out: % viability; for % viability: 10 µM. The procedure:
(§1) Compound information and source are listed in data S9. For Cpd_DC60, the initial small scale was obtained from the NCI Developmental Therapeutics Program (NCI/DTP) Open Chemicals Repository. Additional Cpd_DC60 was then custom synthesized by Ambinter (Orléans, France). MV4-11 cells were seeded at 20,000 cells per well, and U251 cells were seeded at 10,000 cells per well. Cells were cultured in 96-well plates at 100 μl per well and replated with fresh medium and compound every 3 days for up to 9 days. At each time point, 15 μl of the CellTiter-Glo 2.0 assay reagent (G9242, Promega) and 20 μl of resuspended cells were mixed in white flat-bottom 96-well plates (353296, Corning), and subsequently, the resultant luminescence was measured using an Infinite M1000 Pro plate reader (Tecan Trading AG, Switzerland). The relative CellTiter Glo signal was normalized to the control condition (DMSO) at each reading time point. Next, we examined the response of SGF29-dependent MV4-11 leukemia cells and the SGF29-independent U251 glioblastoma cells (see Fig. 1H) to these 190 candidate compounds (plus 15 reference compounds) using a CellTiter Glo screen. […] Compared to the pan-cancer inhibitors I-BET151 [inhibits the bromodomain of Bromodomain and Extra-Terminal motif (BET)] ([36]) and JQ1 (blocks BRD4 bromodomain) ([10]), we observed several known leukemia-targeting compounds (EPZ-5676, OICR-9429, A-485, and A-366) ([37]–[40]) within the 19 MV4-11 selective inhibitors (detailed in fig. S7A). On the basis of the selective killing against MV4-11 (Δ Score, i.e., differential CellTiter Glo % between MV4-11 and U251 on day 9), we then chose the top six ranked candidate compounds (Cpd_DC60, 201, 11, 157, 182, and 21) for further investigation (fig. S7B). […] Identification of SGF29 lead inhibitor by CRISPR-SADD workflow. (A) Schematic outline of the Sgf29 high-density CRISPR tiling scan in MLL-AF9-Cas9^+ cells. (B) Two-dimensional annotation of Sgf29 CRISPR-Scan. The blue line indicates the smoothened model of the CRISPR-Scan score derived from 147 sgRNAs (dots) targeting the coding exons of Sgf29. The median NCS scores of the positive control (red dotted line; defined as −1.0) and negative control (green dotted line; defined as 0.0) sgRNAs are highlighted. The blue dashed box indicates the SGF29-TTD domain. (C) Three-dimensional annotation Sgf29 CRISPR-Scan score relative to an x-ray crystal structural model of human SGF29-TTD (PDB ID: 3ME9). The CRISPR hypersensitive (red) aromatic cage of SGF29 Tudor_2 domain is highlighted. (D) Docking box (cube) defined by overlapping the PrankWeb predicted ligandable protein surface (surface contour marked by the dotted pink-line) with the CRISPR hypersensitive region of SGF29-TTD (red areas). (E) Heatmap showing the relative CellTiter Glo signal [% to dimethyl sulfoxide (DMSO) control] of MV4-11 and U251 cells incubated with 205 selected compounds (10 μM) for 3, 6, and 9 days. The effective killing was defined as less than 10% relative CellTiter Glo signal on day 9. Four clusters of compounds are identified, including the U251 selective (7 cpds), noneffective (157 cpds), general toxic (22 cpds), and MV4-11 selective (19 cpds) groups. (F and G) Western blot of (F) MOLM13 cells and (G) MV4-11 cells incubated with Cpd_DC60 (20 μM) for 48 hours. (H) Effect of Cpd_DC60 on the SGF29-TTD/H3K4me3 AlphaScreen signal. (I) Left: Docking simulation model of SGF29-TTD (colored by NCS) interacts with Cpd_DC60 (yellow). Right: Overlap of SGF29-TTD/H3K4me3 (cyan) cocrystal structure (PDB ID: 3ME9) with the predicted Cpd_DC60 (yellow) binding post on SGF29-TTD. The “aromatic cage” that consists of Y238, Y245, and F264 is indicated. a.a., amino acid. IC50, median inhibitory concentration.

The test system of the next series is MV4-11. Kind of series: cells. Further details: species or system MV4-11; U251. The following applies: for viability at 10 µM: Homo sapiens, read-out: % viability; for % viability: 10 µM. The method, then: as §1
In series [1] the target is T1, recombinant His6-tagged SGF29 tandem Tudor domain (SGF29-TTD), residues Met114 to Lys293 (human, UniProt Q96ES7 114-293).
T1 construct: SAGA-associated factor 29 (SGF29), human, tandem Tudor domain, residues Met114 to Lys293, UniProt Q96ES7; 22.9 kDa with the tag; Codon-optimised cDNA with synonymous changes only; No tag cleavage is described; the chain is detected by the nickel chelate AlphaScreen beads; The forward primer carries the end of a TEV site (ENLYFQS) from the vector before Met114; also called SGF29_Tudor 2; …
T1 sequence (looked up): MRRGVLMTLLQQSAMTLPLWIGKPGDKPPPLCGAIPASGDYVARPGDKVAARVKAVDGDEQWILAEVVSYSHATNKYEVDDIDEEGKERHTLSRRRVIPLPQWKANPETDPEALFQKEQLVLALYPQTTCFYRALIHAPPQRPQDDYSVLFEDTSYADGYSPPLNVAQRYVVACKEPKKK
Kind of series: AlphaScreen or HTRF; AlphaScreen Histidine (Nickel Chelate) Detection Kit; 75 nM SGF29-TTD, 150 nM H3(1-18)K4me3-bio, 0.8% DMSO, acceptor/donor beads 20 ug/ml; 50 mM Hepes, 100 mM NaCl, 5 mM TCEP, pH 7.4; 25 C, 3 hours; signal blocked by the small molecule Cpd_DC60. The following applies: both partners purified.

Regarding `Cc1ccc2nc(-c3ccc(N4C(=O)C5C6c7ccccc7C(c7ccccc76)C5C4=O)cc3)sc2c1` (stereo not shown) [compound 23, ZINC000008935041], the viability at 10 µM turned out to be 87.4% with U251 (U-251) (U-251, 72 h); 48.7% with U251 (U-251) (U-251, 144 h); 11% in the series with U251 (U-251) (U-251, 216 h); 41.6% with MV4-11 (MV4-11, 72 h); 14.8% in the series on MV4-11 (MV4-11, 144 h); 4.43% with MV4-11 (MV4-11, 216 h).
As to `CC(C)(C)NCCCNC(=O)c1cccc(Br)c1` [compound 31, UNC2170 trifluoroacetate], the viability at 10 µM with U251 (U-251) (U-251, 72 h) is 111%; in the series on U251 (U-251) (U-251, 144 h), 110%; in the series on U251 (U-251) (U-251, 216 h) it was 106%; in the series with MV4-11 (MV4-11, 72 h), 120%; with MV4-11 (MV4-11, 144 h) it was 93.1%; in the series on MV4-11 (MV4-11, 216 h) it was 125%.
For `CCC[C@H](NC(=O)[C@@H]1[C@H]2CCC[C@H]2CN1C(=O)[C@@H](NC(=O)[C@@H](NC(=O)c1cnccn1)C1CCCCC1)C(C)(C)C)C(=O)C(=O)NC1CC1` [compound 76, Telaprevir (VX-950)], the “% viability” value with U251 (U-251) (day 3, 72 h) was 49.36%; in the series on U251 (U-251) (day 6, 144 h) it was 17.7%; in the series with U251 (U-251) (day 9, 216 h), 2.593%; in the series with MV4-11 (day 3, 72 h) it was 12.16%; in the series with MV4-11 (day 6, 144 h), 1.882%; in the series with MV4-11 (day 9, 216 h), 0.2706%.
In the case of `COc1cc2c(cc1-c1c(C)noc1C)ncc1[nH]c(=O)n([C@H](C)c3ccccn3)c12` [compound 78, I-BET151], the viability at 10 µM with U251 (U-251) (U-251, 72 h) was found to be 14.5%; in the series with U251 (U-251) (U-251, 144 h) it was 0.804%; in the series with U251 (U-251) (U-251, 216 h), 0.227%; in the series on MV4-11 (MV4-11, 72 h), 0.356%; in the series with MV4-11 (MV4-11, 144 h), 0.218%; in the series with MV4-11 (MV4-11, 216 h), 0.24%.
Consider `O=C(Cc1ccccc1)Nc1ccc2oc(-c3ccc4ccccc4c3)nc2c1` [compound 172, ZINC000001204199], for which the viability at 10 µM in the series on U251 (U-251) (U-251, 72 h) is 108%; in the series on U251 (U-251) (U-251, 144 h) it was 107%; in the series with U251 (U-251) (U-251, 216 h) it was 112%; in the series on MV4-11 (MV4-11, 72 h), 114%; with MV4-11 (MV4-11, 144 h) it was 101%; in the series on MV4-11 (MV4-11, 216 h) it was 78.6%.
With `Nc1c(Br)cc([N+](=O)[O-])cc1Br` [compound 240, ZINC000001641734], the viability at 10 µM in the series on U251 (U-251) (U-251, 72 h) came to 110%; in the series with U251 (U-251) (U-251, 144 h), 106%; in the series with U251 (U-251) (U-251, 216 h) it was 115%; with MV4-11 (MV4-11, 72 h), 95.7%; with MV4-11 (MV4-11, 144 h) it was 86.7%; in the series on MV4-11 (MV4-11, 216 h), 89%.

B1: H3(1-18)K4me3-bio (biotinylated H3K4me3) peptide (peptide, UniProt P68431 2-19, looked up)
peptide: ARTK(Me3)QTARKSTGGKAPRK
modifications: also: biotin, position not given here
notes: histone H3, residues 1-18, trimethylated at lysine 4; source: synthetic peptide (Thermo Fisher Scientific)
Take B1: the binding result in series [1] is listed as “binds”.

As a reminder, the viability is a read-out of living cells in per cent, often relative to untreated cells.
